Laboratory results: US11752116B2, “Method of viral inhibition” (priority 2013, dated 2023)

What was measured:
DENV-2 [1] = experiment: DENV-2 infectivity assay in Vero cells, viral RNA copies in culture medium by RT-PCR; type: cell-based; conditions: MOI of 1; for effect on DENV infection (viral RNA copies at 24 h p.i.): 10 μM compound
Experimental: To test the specificity of 4-HPR and 4-oxo-4-HPR for anti-DENV activity Vero cells were infected with DENV-2 with a multiplicity of infection (MOI) of 1, in the presence of drug diluent (untreated) or the indicated compounds (10 μM in FIG. 3A, or 10 μM or 5 μM as indicated in FIG. 3B) for 2 h, followed by removal of the virus/drug inoculums, and addition of fresh 2% FCS maintenance medium. At 24 h post infection (p.i.) the culture medium was collected and the viral RNA extracted using QIAamp viral RNA mini kit (Qiagen). Absolute RNA copies present in each sample were determined by Taqman One Step RT-PCR (Applied Biosystems), as an estimate of virus titre by extrapolation from a standard curve generated from in vitro transcribed DENV RNA. Data shown are the mean+standard error of the mean (SEM) for 3 (FIG. 3A) or 2 (FIG. 3B) independent experiments. Statistical analysis (Student's ttest) was performed using GraphPad Prism software.

DENV-2 NS5 / IMPα/β = DENV-2 NS5 / IMPα/β (Dengue virus type 2, UniProt P14340); experiment: AlphaScreen binding of His6-NS5 to IMPα/β heterodimer; conditions: 3 nM His6-NS5, 10 nM IMPα/β, increasing concentrations of compound
Experimental: AlphaScreen®, a luminescent bead-based assay that measures direct protein-protein interactions, was used to examine the binding of 3 nM His6-NS5 to 10 nM IMPα/β (IMPα/β heterodimer containing biotinylated IMPβ1) in the presence of increasing concentrations of 4-HPR, 4-MPR or ATRA (FIG. 1A), or 4-oxo-4-HPR, 4-HPR or 4-MPR (FIG. 1B). Data are the mean±standard deviation (SD) of triplicate wells from a single typical experiment.
To investigate the specificity of 4-HPR inhibition of NS5-importin association, the binding of 30 nM His6-NS5 to 10 nM IMPα/β, (IMPα/β heterodimer containing biotinylated IMPβ1), 3 nM IMPαΔIBB (biotinylated IMPa with the IMPβ-binding domain removed), or 3 nM biotinylated IMPβ1, in the presence of increasing concentrations of 4-HPR, was investigated.

DENV-2 [2] = experiment: Delayed addition in DENV-2 infected Huh-7 cells, NS1 RNA by qPCR; type: cell-based
Experimental: To gain further insight into the mode of action of 4-HPR, the human liver carcinoma cell line, Huh-7 cells were infected with DENV-2 (MOI of 1), followed by delayed addition of drug diluent DMSO (DENV only), 7.5 μM 4-HPR, 7.5 μM 4-MPR or 10 μM NITD008 (a previously described adenosine nucleoside inhibitor), 12 h post infection. Cells were lysed at the indicated times, RNA was extracted by Trizol and analysed by qPCR with fold change in expression of NS1 calculated relative to the untreated control (FIG. 5B). Concurrently, culture medium was collected and viral titres determined by plaque assay (FIG. 5C).

DENV-1 [3] = experiment: Cell-based flavivirus immunodetection assay in BHK-21 cells, DENV-1; conditions: 48 h p.i.
Experimental: (§1) To investigate this, BHK-21 cells were infected with DENV serotypes 1, 2, 3 or 4 (MOI of 0.3) for 1 h in the presence of 4-HPR or 4-MPR (concentrations as indicated in FIG. 6A). Virus inoculum was removed and fresh media containing the indicated compounds was added. Virus infection rates were determined 48 h p.i. using a cell-based flavivirus immunodetection assay. Briefly, cells were fixed and stained for DENV structural protein, E, followed by addition of Alexa Fluor 488 anti-mouse IgG. Viral antigen quantification was performed using Imagexpress. Data shown are representative of a single experiment

DENV-2 [4] = experiment: Cell-based flavivirus immunodetection assay in BHK-21 cells, DENV-2; conditions: BHK-21 cells, 48 h p.i.
Experimental: as §1

DENV-3 = experiment: Cell-based flavivirus immunodetection assay in BHK-21 cells, DENV-3; conditions: 48 h p.i.
Experimental: as §1

DENV-4 = experiment: Cell-based flavivirus immunodetection assay in BHK-21 cells, DENV-4; conditions: BHK-21 cells, 48 h p.i.
Experimental: as §1

DENV-1 [5] = experiment: ADE-mediated DENV-1 infection of human PBMCs, plaque assay; type: cell-based; conditions: ADE-mediated DENV-1 infection, 48 h
Experimental: The antiviral activity of 4-HPR was investigated in the more physiologically relevant human system of peripheral blood mononuclear cells (PBMCs), a major target of DENV infection in humans.
PBMCs were prepared from a healthy donor buffy coat using a Ficoll gradient, prior to ADE-mediated DENV-1 infection (MOI of 10) in the presence of increasing concentrations of 4-HPR or 4-MPR, and infectious virus titres determined by plaque assay 48 h later.

CHIKV = CHIKV infection of HEK293T cells, plaque assay; type: cell-based; conditions: 5 μM, 24 h p.i.
Experimental: HEK293T cells were treated with 5 μM 4-HPR or 4-MPR for 2 h, then infected with CHIKV for 1 h (MOI of 0.1) in the absence of compound (FIG. 9A). Alternatively, HEK293T cells were infected with CHIKV for 1 h (MOI of 0.1) without pre-treating the cells with compound (FIG. 9B). In both instances, virus inoculums were removed, then fresh medium containing the indicated compound was added (FIG. 9A and FIG. 9B). Infectious virus titres were determined by plaque assay 24 h p.i. Data are the mean+standard deviation of one experiment performed in duplicate wells, represented as plaque forming units per ml (PFU/ml).

[6] = test system: West Nile virus, Kunjin strain (WNVKUN); experiment: West Nile virus (Kunjin strain) infection of Vero cells, plaque assay; type: cell-based; conditions: Vero cells
Experimental: FIG. 9C. Viral titre from a plaque assay conducted from Vero cells infected with West Nile virus (Kunjin strain; WNVKUN) after treatment with 10 μM 4-HPR for 4 h.

## CC1=C(/C=C/C(C)=C/C=C/C(C)=C\C(=O)O)C(C)(C)CCC1 [13-cis retinoic acid]
DENV-2 [1]
  effect on DENV infection (viral RNA copies at 24 h p.i.): no effect on DENV infection

## CC1=C(/C=C/C(C)=C/C=C/C(C)=C/C(=O)Nc2ccc(O)cc2)C(C)(C)CCC1=O [4-oxo-4-HPR, N-(4-hydroxyphenyl)-4-oxoretinamide]
DENV-2 NS5 / IMPα/β
  block of association of DENV-2 NS5 with IMPα/β: able to block association
DENV-2 [1]; 5 μM compound for 2 h during infection
  reduction in viral RNA copies at 24 h p.i.: 1 log

## CC1=C(/C=C/C(C)=C/C=C/C(C)=C/C(=O)O)C(C)(C)CCC1 [ATRA, all-trans retinoic acid]
DENV-2 NS5 / IMPα/β
  block of association of DENV-2 NS5 with IMPα/β: neither ATRA nor 4-MPR were able to disrupt association
DENV-2 [1]
  effect on DENV infection (viral RNA copies at 24 h p.i.): no effect on DENV infection

## C#C[C@@]1(O)[C@H](O)[C@@H](CO)O[C@H]1n1ccc2c(N)ncnc21 [NITD008]
DENV-2 [2]; 10 μM added 12 h p.i.
  viral RNA levels (NS1 qPCR): reduced RNA levels

## COc1ccc(NC(=O)/C=C(C)/C=C/C=C(C)/C=C/C2=C(C)CCCC2(C)C)cc1 [4-MPR, N-(4-methoxyphenyl) retinamide]
DENV-2 NS5 / IMPα/β
  block of association of DENV-2 NS5 with IMPα/β: neither ATRA nor 4-MPR were able to disrupt association
DENV-2 [1]
  effect on DENV infection (viral RNA copies at 24 h p.i.): no effect on DENV infection
DENV-2 [2]; 7.5 μM added 12 h p.i., up to 60 h p.i.
  viral RNA levels (NS1 qPCR): viral RNA levels increased steadily until 60 h p.i.
DENV-1 [3]
  effect on replication of DENV serotype 1: did not have any effect
DENV-2 [4]
  effect on replication of DENV serotype 2: did not have any effect
DENV-3
  effect on replication of DENV serotype 3: did not have any effect
DENV-4
  effect on replication of DENV serotype 4: did not have any effect
DENV-1 [5]
  reduction of infectious virus titre in infected PBMCs: no reduction
CHIKV; HEK293T cells pre-treated 2 h with compound
  reduction of infectious CHIKV produced: did not reduce CHIKV titres
CHIKV; HEK293T cells, compound added after infection
  reduction of infectious CHIKV produced: did not reduce CHIKV titres
[6]
  antiviral activity against WNVKUN: no antiviral activity

## C/C(=C\c1ccc(C(=O)O)cc1)c1ccc2c(c1)C(C)(C)CCC2(C)C [arotinoid acid]
DENV-2 [1]
  effect on DENV infection (viral RNA copies at 24 h p.i.): no effect on DENV infection
